Measurements published in patent publication US20020026053A1, “Novel 3-(substituted) -2- indolinones compounds and use thereof as inhibitors of protein kinase activity” (priority 1997, published 2002).

What follows are compounds tested against T1, Met receptor (EGFR/Met chimeric cells, EMR) (Homo sapiens, UniProt P08581) (assay: Met Autophosphorylation Assay). Details: protocol P.130.
T1 construct: expressed in transfected cells; the other entry of the earlier key: EGFR (P00533, Epidermal growth factor receptor)
T1 sequence (P08581 with tags, fused parts or gaps): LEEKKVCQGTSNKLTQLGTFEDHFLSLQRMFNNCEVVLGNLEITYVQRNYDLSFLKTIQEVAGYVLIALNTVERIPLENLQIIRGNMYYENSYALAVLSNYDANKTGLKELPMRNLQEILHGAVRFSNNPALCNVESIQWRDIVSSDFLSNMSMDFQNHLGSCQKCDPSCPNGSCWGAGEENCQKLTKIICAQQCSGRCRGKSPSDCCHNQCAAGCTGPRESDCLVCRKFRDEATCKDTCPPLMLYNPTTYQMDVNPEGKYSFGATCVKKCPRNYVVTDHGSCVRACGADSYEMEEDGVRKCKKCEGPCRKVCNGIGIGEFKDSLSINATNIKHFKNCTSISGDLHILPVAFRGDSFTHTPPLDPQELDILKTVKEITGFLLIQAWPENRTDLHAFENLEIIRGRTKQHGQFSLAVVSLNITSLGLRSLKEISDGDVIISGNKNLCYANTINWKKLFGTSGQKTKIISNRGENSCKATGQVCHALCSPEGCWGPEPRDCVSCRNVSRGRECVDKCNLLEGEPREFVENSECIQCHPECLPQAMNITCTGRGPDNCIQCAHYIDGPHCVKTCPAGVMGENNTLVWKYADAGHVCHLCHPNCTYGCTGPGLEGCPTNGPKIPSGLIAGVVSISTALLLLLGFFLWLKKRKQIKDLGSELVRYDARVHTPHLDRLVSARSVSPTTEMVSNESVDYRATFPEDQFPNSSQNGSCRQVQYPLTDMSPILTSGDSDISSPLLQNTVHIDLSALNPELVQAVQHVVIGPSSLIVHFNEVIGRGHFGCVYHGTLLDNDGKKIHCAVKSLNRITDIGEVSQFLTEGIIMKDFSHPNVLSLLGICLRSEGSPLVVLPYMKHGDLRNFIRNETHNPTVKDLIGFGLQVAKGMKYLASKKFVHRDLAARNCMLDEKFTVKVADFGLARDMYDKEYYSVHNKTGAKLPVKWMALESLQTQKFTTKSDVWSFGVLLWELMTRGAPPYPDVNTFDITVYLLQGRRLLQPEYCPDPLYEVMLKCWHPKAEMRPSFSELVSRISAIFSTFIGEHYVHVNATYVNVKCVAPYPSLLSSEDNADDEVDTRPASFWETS
Type: biochemical
Method in brief: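 Met phosphorylation was measured by capture ELISA. Lysates (90 μg/100 μl, HNTG plus 1 mM PMSF) from transiently transfected EGFR/Met chimera (EMR) cells were bound for 60 min at room temperature to wells holding rabbit anti-Met (C-28) on goat anti-rabbit coat. Phosphotyrosine was the read-out.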

Compound	Met Kinase % Inhibition (P.130) [%]
Cc1ccc(C)c(C=C2C(=O)Nc3c(Br)cc(Br)c(C)c32)c1 [10737/H07]	51.8
Cc1c(Br)cc(Br)c2c1C(=Cc1ccc3ccccc3c1)C(=O)N2 [10737/H08]	28.0
Cc1c(Br)cc(Br)c2c1C(=Cc1ccc(Oc3ccccc3)cc1)C(=O)N2 [10737/H09]	38.1
Cc1c(Br)cc(Br)c2c1C(=Cc1cccc(Oc3ccc(C(C)(C)C)cc3)c1)C(=O)N2 [10737/H10]	51.6
Cc1c(Br)cc(Br)c2c1C(=Cc1cccc(Oc3cccc(C(F)(F)F)c3)c1)C(=O)N2 [10737/H11]	31.7
Cc1ccc(Oc2cccc(C=C3C(=O)Nc4c(Br)cc(Br)cc43)c2)cc1 [10738/A02]	10.0
O=C1Nc2c(Br)cc(Br)cc2C1=Cc1cccc(Oc2ccc(Cl)c(Cl)c2)c1 [10738/A03]	20.7
COc1ccc(C=C2C(=O)Nc3c(Br)cc(Br)cc32)cc1O [10738/A04]	55.9
O=C1Nc2c(Br)cc(Br)cc2C1=Cc1cc(O)ccc1[N+](=O)[O-] [10738/A05]	33.1
O=C1Nc2c(Br)cc(Br)cc2C1=Cc1cccc(O)c1O [10738/A06]	95.8
O=C1Nc2c(Br)cc(Br)cc2C1=Cc1cc(O)cc(O)c1 [10738/A07]	72.7
O=C1Nc2c(Br)cc(Br)cc2C1=Cc1ccc(Cl)c(Cl)c1 [10738/A08]	12.2
COc1ccccc1C=C1C(=O)Nc2c(Br)cc(Br)cc21 [10738/A09]	20.2
CC(C)c1ccc(C=C2C(=O)Nc3c(Br)cc(Br)cc32)cc1 [10738/A10]	35.7
CCCOc1ccc(C=C2C(=O)Nc3c(Br)cc(Br)cc32)cc1 [10738/A11]	41.7
Cc1ccc(Oc2cccc(C=C3C(=O)Nc4ccc(I)cc43)c2)cc1 [10738/B02]	78.7
O=C1Nc2ccc(I)cc2C1=Cc1cccc(Oc2ccc(Cl)c(Cl)c2)c1 [10738/B03]	74.0

Compound	Met Kinase % Inhibition (P.130) [%]
COc1ccc(C=C2C(=O)Nc3ccc(I)cc32)cc1O [10738/B04]	70.7
O=C1Nc2ccc(I)cc2C1=Cc1cc(O)ccc1[N+](=O)[O-] [10738/B05]	67.6
O=C1Nc2ccc(I)cc2C1=Cc1cccc(O)c1O [10738/B06]	83.6
O=C1Nc2ccc(I)cc2C1=Cc1cc(O)cc(O)c1 [10738/B07]	66.7
O=C1Nc2ccc(I)cc2C1=Cc1ccc(Cl)c(Cl)c1 [10738/B08]	70.9
COc1ccccc1C=C1C(=O)Nc2ccc(I)cc21 [10738/B09]	79.4
CC(C)c1ccc(C=C2C(=O)Nc3ccc(I)cc32)cc1 [10738/B10]	70.7
CCCOc1ccc(C=C2C(=O)Nc3ccc(I)cc32)cc1 [10738/B11]	75.4
Cc1ccc(Oc2cccc(C=C3C(=O)Nc4ccc(Br)c(C)c43)c2)cc1 [10738/C02]	4.3
Cc1c(Br)ccc2c1C(=Cc1cccc(Oc3ccc(Cl)c(Cl)c3)c1)C(=O)N2 [10738/C03]	22.7
COc1ccc(C=C2C(=O)Nc3ccc(Br)c(C)c32)cc1O [10738/C04]	53.7
Cc1c(Br)ccc2c1C(=Cc1cc(O)ccc1[N+](=O)[O-])C(=O)N2 [10738/C05]	34.2
Cc1c(Br)ccc2c1C(=Cc1cccc(O)c1O)C(=O)N2 [10738/C06]	92.2
Cc1c(Br)ccc2c1C(=Cc1cc(O)cc(O)c1)C(=O)N2 [10738/C07]	51.2
Cc1c(Br)ccc2c1C(=Cc1ccc(Cl)c(Cl)c1)C(=O)N2 [10738/C08]	39.5
COc1ccccc1C=C1C(=O)Nc2ccc(Br)c(C)c21 [10738/C09]	8.9
